# Columns and labels:
# [1] = target: T1, Neuropeptide Y receptor type 5 (Homo sapiens, UniProt Q15761); test: Displacement of [125I]PYY from human recombinant NPY Y5 receptor expressed in mouse LMtk cells; assay type: cell-based
# T1 sequence (Q15761 whole entry): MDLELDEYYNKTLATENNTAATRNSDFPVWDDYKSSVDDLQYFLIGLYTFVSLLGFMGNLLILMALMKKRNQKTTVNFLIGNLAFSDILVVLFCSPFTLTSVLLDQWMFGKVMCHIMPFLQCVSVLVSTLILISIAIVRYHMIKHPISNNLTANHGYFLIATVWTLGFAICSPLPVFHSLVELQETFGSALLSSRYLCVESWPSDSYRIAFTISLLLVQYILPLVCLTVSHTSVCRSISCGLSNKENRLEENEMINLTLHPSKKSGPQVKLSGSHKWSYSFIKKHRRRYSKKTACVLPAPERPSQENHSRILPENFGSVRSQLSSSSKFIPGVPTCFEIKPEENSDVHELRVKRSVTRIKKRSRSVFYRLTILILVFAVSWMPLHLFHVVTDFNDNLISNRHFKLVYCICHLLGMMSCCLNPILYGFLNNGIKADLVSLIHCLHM
# [2] = Lipophilicity, Log D at pH 7.4; details: buffer
# [3] = tested on: LLC-PK1; test: Efflux ratio of permeability from […] side in mouse mdr1a gene transfected pig LLC-PK1 cells; assay type: ADME, cell-based, Sus scrofa
# [4] = tested on: LLC-PK1; test: Efflux ratio of permeability from […] side in human MDR1 gene transfected pig LLC-PK1 cells; assay type: ADME, cell-based, Sus scrofa
# [5] = tested on: Brain; test: Drug level in rat brain at 3 mg/kg, iv; assay type: ADME, organism-based; design: dose 3 mg/kg, route intravenous; details: in vivo; as to Drug uptake: time not given here
# [6] = tested on: Cerebrospinal fluid; test: Drug level in rat cerebrospinal fluid at 3 mg/kg, iv; assay type: ADME, organism-based; design: dose 3 mg/kg, route intravenous; details: in vivo, read-out: Drug uptake; also: time not given here
# [7] = tested on: Rattus norvegicus; test: Plasma concentration in rat at 3 mg/kg, iv; assay type: ADME, organism-based; design: dose 3 mg/kg, route intravenous; details: in vivo; also: time not given here
# [8] = Ratio of drug level in cerebrospinal fluid to brain of rat at 3 mg/kg, iv; assay type: ADME, organism-based, CSF/Brain; design: dose 3 mg/kg, route intravenous; details: in vivo
# [9] = Ratio of drug level in rat brain to plasma at 3 mg/kg, iv; assay type: ADME, organism-based; design: dose 3 mg/kg, route intravenous
# [10] = target: Neuropeptide Y receptor type 4 (Homo sapiens, UniProt P50391); test: Inhibition of human NPY Y4 receptor
# Sequence of Neuropeptide Y receptor type 4 (P50391 whole entry): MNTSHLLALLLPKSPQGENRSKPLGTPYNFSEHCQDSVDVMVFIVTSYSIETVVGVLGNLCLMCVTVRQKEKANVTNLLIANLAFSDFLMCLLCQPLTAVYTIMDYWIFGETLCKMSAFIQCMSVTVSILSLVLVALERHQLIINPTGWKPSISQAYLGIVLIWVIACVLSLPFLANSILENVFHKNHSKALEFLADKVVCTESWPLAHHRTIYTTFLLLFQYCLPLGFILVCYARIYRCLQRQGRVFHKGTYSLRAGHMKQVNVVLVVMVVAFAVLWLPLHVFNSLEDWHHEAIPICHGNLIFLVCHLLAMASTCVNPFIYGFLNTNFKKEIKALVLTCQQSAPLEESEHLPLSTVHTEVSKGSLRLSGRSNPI
# [11] = target: T2, Neuropeptide Y receptor type 1 (Homo sapiens, UniProt P25929); test: Inhibition of human NPY Y1 receptor
# T2 sequence (P25929 whole entry): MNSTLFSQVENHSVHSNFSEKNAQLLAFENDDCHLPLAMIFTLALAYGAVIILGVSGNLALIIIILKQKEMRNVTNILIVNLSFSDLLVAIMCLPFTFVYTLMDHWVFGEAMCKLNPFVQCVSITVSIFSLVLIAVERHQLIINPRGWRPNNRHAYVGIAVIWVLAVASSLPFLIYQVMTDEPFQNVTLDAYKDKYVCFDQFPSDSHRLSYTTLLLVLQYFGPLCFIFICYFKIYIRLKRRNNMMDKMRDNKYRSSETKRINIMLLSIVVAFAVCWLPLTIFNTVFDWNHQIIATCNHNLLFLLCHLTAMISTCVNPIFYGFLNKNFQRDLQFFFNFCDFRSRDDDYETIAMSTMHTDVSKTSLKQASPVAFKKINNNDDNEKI
# [12] = target: T3, Neuropeptide Y receptor type 2 (Homo sapiens, UniProt P49146); test: Inhibition of human NPY Y2 receptor
# T3 sequence (P49146 whole entry): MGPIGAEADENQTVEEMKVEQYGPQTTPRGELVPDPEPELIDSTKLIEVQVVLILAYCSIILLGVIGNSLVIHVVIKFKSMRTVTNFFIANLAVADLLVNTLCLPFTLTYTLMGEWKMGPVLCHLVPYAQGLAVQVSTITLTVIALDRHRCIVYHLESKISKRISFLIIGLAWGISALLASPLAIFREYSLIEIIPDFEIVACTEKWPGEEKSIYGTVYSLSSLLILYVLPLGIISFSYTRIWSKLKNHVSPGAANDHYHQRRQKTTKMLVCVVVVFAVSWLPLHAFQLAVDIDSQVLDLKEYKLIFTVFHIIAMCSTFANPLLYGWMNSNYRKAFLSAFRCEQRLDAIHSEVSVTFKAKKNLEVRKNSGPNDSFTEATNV
compound,measurement,setting,value
O=C1O[C@]2(CC[C@H](C(=O)Nc3ncc(-c4ccccc4OCF)cn3)CC2)c2ccncc21,IC50,[1],2.2 nM
O=C1O[C@]2(CC[C@H](C(=O)Nc3ncc(-c4cccc(OCF)c4)cn3)CC2)c2cccnc21,IC50,[1],3.1 nM
O=C1O[C@]2(CC[C@H](C(=O)Nc3ncc(-c4ccc(F)cc4)cn3)CC2)c2cnccc21,IC50,[1],2.7 nM
O=C1O[C@]2(CC[C@H](C(=O)Nc3ncc(-c4ccccc4OCF)cn3)CC2)c2cnccc21,logD,[2],2.71
same,IC50,[1],2.6 nM
O=C1O[C@]2(CC[C@H](C(=O)Nc3ncc(-c4ccccc4F)cn3)CC2)c2cccnc21,IC50,[1],3 nM
O=C1O[C@]2(CC[C@H](C(=O)Nc3ncc(-c4cccc(OCF)c4)cn3)CC2)c2ccncc21,logD,[2],2.71
same,Ratio,[3],9.51
same,Ratio,[4],1.52
same,IC50,[1],1.8 nM
same,concentration,[5]; read-out: Drug uptake,150 nM
same,concentration,[6],64 nM
same,concentration,[7],1500 nM
same,Ratio,[8],0.42
same,Kp,[9],0.11
O=C1O[C@]2(CC[C@H](C(=O)Nc3ncc(-c4cccc(OCF)c4)cn3)CC2)c2cnccc21,logD,[2],2.75
same,Ratio,[3],8.23
same,Ratio,[4],1.37
same,IC50,[1],1.9 nM
same,concentration,[5]; read-out: Drug uptake,740 nM
same,concentration,[6],95 nM
same,concentration,[7],2040 nM
same,Ratio,[8],0.13
same,Kp,[9],0.37
O=C1O[C@]2(CC[C@H](C(=O)Nc3ncc(-c4ccccc4F)cn3)CC2)c2ccncc21,IC50,[10],> 10000 nM
same,logD,[2],2.79
same,Ratio,[3],4.43
same,Ratio,[4],1.11
same,IC50,[1],1.5 nM
same,IC50,[11],> 10000 nM
same,concentration,[5]; read-out: Cp,1550 nM
same,IC50,[12],> 10000 nM
same,concentration,[6],288 nM
same,concentration,[7],3100 nM
same,Ratio,[8],0.19
same,Kp,[9],0.5
O=C1O[C@]2(CC[C@H](C(=O)Nc3ncc(-c4ccccc4)cn3)CC2)c2cnccc21,logD,[2],2.65
same,IC50,[1],1.8 nM
O=C1O[C@]2(CC[C@H](C(=O)Nc3ncc(-c4ccccc4)cn3)CC2)c2cccnc21,logD,[2],2.32
same,IC50,[1],2.1 nM
O=C1O[C@]2(CC[C@H](C(=O)Nc3ncc(-c4ccc(F)cc4)cn3)CC2)c2cccnc21,IC50,[1],7.5 nM
O=C1O[C@]2(CC[C@H](C(=O)Nc3ncc(-c4ccccc4)cn3)CC2)c2ccncc21,IC50,[1],2 nM
O=C1O[C@]2(CC[C@H](C(=O)Nc3ncc(-c4ccccc4)cn3)CC2)c2ccccc21,logD,[2],3.73
same,IC50,[1],0.64 nM
O=C1O[C@]2(CC[C@H](C(=O)Nc3ncc(-c4cccc(F)c4)cn3)CC2)c2cnccc21,IC50,[1],1.8 nM
O=C1O[C@]2(CC[C@H](C(=O)Nc3ncc(-c4ccc(F)cc4)cn3)CC2)c2ccncc21,IC50,[1],2.2 nM
O=C1O[C@]2(CC[C@H](C(=O)Nc3ncc(-c4cccc(F)c4)cn3)CC2)c2ccncc21,logD,[2],2.78
same,Ratio,[3],7.78
same,Ratio,[4],1.41
same,IC50,[1],1.5 nM
same,concentration,[5]; read-out: Drug uptake,1420 nM
same,concentration,[6],308 nM
same,concentration,[7],3450 nM
same,Ratio,[8],0.22
same,Kp,[9],0.41
O=C1O[C@]2(CC[C@H](C(=O)Nc3ncc(-c4cccc(CF)c4)cn3)CC2)c2cccnc21,IC50,[1],2.3 nM
O=C1O[C@]2(CC[C@H](C(=O)Nc3ncc(-c4ccccc4CF)cn3)CC2)c2cnccc21,logD,[2],2.54
same,IC50,[1],2 nM
O=C1O[C@]2(CC[C@H](C(=O)Nc3ncc(-c4cccc(F)c4)cn3)CC2)c2cccnc21,logD,[2],2.48
same,IC50,[1],2.2 nM
O=C1O[C@]2(CC[C@H](C(=O)Nc3ncc(-c4cccc(CF)c4)cn3)CC2)c2cnccc21,logD,[2],2.65
same,Ratio,[3],7.9
same,Ratio,[4],1.69
same,IC50,[1],1.8 nM
same,concentration,[5]; read-out: Drug uptake,370 nM
same,concentration,[6],79 nM
same,concentration,[7],1220 nM
same,Ratio,[8],0.22
same,Kp,[9],0.3
O=C1O[C@]2(CC[C@H](C(=O)Nc3ncc(-c4ccccc4F)cn3)CC2)c2cnccc21,logD,[2],2.79
same,IC50,[1],1.8 nM
O=C1O[C@]2(CC[C@H](C(=O)Nc3ncc(-c4ccccc4)cn3)CC2)c2ncccc21,logD,[2],2.71
same,IC50,[1],2.9 nM
O=C1O[C@]2(CC[C@H](C(=O)Nc3ncc(-c4ccccc4OCF)cn3)CC2)c2cccnc21,IC50,[1],4.5 nM

# From ChEMBL document CHEMBL1155978, “Identification of positron emission tomography ligands for NPY Y5 receptors in the brain” (Bioorg Med Chem Lett, 2009)
